Test results from ChEMBL document CHEMBL4507291 (2021).
pKi: −log10 of the molar value.

Legend:
[1] = molecular target: Wee1-like protein kinase 2 (Homo sapiens) (UniProt P0C1S8)
[2] = molecular target: Macrophage colony-stimulating factor 1 receptor (Homo sapiens) (UniProt P07333)
[3] = molecular target: Myosin light chain kinase, smooth muscle (Homo sapiens) (UniProt Q15746)
[4] = molecular target: T1, Serine/threonine-protein kinase Chk1 (Homo sapiens) (UniProt O14757)
T1 sequence (whole entry): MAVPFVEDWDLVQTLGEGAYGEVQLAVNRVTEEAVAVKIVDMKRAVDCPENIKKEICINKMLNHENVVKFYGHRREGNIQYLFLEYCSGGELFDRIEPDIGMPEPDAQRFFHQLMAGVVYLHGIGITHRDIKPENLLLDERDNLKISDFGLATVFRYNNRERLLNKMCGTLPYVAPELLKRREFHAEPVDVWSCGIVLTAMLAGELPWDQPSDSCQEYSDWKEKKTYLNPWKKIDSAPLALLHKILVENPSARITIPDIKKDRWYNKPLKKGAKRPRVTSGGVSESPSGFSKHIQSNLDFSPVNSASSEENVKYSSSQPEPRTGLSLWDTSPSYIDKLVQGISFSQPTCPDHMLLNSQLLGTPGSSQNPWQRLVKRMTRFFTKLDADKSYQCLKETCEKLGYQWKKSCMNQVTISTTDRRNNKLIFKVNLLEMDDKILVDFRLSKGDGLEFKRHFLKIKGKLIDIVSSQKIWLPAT

[5] = molecular target: Histamine H2 receptor (Homo sapiens) (UniProt P25021); settings: Compound concentration 10.0 uM
[6] = molecular target: Serine/threonine-protein kinase 16 (Homo sapiens) (UniProt O75716)
[7] = molecular target: Atypical kinase COQ8B, mitochondrial (Homo sapiens) (UniProt Q96D53)
[8] = molecular target: Sigma intracellular receptor 2 (Homo sapiens, UniProt Q5BJF2); experiment: GPCRScan assay: inhibition of Sigma 2; parameters: radioligand conc. used [nm] 5.0, parental cells HEKT
[9] = molecular target: Serine/threonine-protein kinase SIK2 (Homo sapiens) (UniProt Q9H0K1)
[10] = molecular target: T2, Serine/threonine-protein kinase D1 (Homo sapiens) (UniProt Q15139)
T2 sequence (whole entry): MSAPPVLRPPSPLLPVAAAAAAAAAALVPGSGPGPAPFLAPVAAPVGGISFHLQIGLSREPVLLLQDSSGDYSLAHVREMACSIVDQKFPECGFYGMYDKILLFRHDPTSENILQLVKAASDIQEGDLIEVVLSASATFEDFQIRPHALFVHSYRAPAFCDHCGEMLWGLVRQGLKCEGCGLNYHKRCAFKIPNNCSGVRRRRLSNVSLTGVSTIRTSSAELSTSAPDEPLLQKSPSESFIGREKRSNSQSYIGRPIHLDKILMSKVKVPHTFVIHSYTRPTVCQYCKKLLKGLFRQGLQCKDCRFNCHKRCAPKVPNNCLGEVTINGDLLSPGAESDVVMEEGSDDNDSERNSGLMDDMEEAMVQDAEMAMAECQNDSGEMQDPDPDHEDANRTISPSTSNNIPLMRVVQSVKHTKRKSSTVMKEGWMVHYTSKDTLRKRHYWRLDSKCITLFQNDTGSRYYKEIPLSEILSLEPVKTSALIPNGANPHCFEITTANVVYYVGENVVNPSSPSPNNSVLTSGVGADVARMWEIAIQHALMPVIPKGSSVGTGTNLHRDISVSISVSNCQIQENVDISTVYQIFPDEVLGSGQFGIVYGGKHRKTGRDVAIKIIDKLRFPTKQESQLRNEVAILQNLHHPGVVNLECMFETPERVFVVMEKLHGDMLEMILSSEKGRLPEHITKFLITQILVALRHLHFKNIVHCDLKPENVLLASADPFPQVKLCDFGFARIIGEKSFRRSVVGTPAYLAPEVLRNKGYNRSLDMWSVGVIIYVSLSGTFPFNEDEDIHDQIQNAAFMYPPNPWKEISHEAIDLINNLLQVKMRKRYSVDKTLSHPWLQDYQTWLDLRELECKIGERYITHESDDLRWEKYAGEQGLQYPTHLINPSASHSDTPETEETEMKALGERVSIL

[11] = test system: Epidermal growth factor receptor (Homo sapiens), P00533 [G719S]
[12] = molecular target: Epithelial discoidin domain-containing receptor 1 (Homo sapiens) (UniProt Q08345)
[13] = molecular target: Activin receptor type-2B (Homo sapiens) (UniProt Q13705)
[14] = molecular target: Citron Rho-interacting kinase (Homo sapiens) (UniProt O14578)
[15] = molecular target: Serine/threonine-protein kinase MAK (Homo sapiens) (UniProt P20794)
[16] = molecular target: Serine/threonine-protein kinase PknB (Mycobacterium tuberculosis) (UniProt P9WI81)
[17] = Compound concentration 1000.0 nM
[18] = Compound concentration 100.0 nM

Chain of Serine/threonine-protein kinase MAK (Homo sapiens) (P20794 whole entry): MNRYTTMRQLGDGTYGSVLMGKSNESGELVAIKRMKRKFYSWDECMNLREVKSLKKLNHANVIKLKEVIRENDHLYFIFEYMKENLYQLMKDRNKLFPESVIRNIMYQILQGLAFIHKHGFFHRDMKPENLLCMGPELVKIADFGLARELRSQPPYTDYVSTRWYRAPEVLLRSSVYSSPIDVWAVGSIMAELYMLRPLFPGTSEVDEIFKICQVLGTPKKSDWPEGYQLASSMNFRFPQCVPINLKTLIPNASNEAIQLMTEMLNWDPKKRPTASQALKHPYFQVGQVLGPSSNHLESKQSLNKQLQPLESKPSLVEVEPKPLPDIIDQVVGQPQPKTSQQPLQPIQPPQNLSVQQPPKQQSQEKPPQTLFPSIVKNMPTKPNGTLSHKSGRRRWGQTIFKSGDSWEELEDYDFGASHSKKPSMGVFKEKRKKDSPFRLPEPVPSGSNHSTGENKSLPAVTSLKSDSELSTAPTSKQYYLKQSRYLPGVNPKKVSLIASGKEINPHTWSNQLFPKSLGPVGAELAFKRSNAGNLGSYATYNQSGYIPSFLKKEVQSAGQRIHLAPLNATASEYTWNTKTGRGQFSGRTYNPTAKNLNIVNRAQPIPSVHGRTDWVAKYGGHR
Chain of Serine/threonine-protein kinase SIK2 (Homo sapiens) (Q9H0K1 whole entry, looked up): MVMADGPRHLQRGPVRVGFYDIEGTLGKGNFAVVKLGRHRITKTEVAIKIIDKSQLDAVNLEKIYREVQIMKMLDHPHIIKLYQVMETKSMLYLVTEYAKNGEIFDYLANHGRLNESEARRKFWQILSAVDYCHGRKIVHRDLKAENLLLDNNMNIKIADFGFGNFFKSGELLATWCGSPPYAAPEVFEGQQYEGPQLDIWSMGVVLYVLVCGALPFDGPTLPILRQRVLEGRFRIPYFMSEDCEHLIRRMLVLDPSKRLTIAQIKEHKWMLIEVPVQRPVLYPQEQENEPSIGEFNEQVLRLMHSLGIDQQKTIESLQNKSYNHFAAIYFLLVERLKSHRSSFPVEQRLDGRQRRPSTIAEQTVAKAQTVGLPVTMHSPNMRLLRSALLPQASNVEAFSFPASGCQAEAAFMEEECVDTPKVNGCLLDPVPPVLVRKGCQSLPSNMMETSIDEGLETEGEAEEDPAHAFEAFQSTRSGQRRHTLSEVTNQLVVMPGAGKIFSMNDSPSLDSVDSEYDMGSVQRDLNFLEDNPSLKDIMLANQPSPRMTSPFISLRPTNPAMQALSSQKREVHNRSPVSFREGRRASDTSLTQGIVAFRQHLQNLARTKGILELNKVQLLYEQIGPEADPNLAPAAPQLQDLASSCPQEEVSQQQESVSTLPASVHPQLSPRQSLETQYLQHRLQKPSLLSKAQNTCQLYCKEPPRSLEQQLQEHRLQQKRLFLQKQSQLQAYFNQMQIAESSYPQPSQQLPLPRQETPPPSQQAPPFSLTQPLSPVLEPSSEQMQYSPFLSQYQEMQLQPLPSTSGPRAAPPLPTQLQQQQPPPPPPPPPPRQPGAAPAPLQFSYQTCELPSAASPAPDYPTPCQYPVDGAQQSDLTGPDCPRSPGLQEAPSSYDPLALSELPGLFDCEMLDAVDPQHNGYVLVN
Chain of Activin receptor type-2B (Homo sapiens) (Q13705 whole entry): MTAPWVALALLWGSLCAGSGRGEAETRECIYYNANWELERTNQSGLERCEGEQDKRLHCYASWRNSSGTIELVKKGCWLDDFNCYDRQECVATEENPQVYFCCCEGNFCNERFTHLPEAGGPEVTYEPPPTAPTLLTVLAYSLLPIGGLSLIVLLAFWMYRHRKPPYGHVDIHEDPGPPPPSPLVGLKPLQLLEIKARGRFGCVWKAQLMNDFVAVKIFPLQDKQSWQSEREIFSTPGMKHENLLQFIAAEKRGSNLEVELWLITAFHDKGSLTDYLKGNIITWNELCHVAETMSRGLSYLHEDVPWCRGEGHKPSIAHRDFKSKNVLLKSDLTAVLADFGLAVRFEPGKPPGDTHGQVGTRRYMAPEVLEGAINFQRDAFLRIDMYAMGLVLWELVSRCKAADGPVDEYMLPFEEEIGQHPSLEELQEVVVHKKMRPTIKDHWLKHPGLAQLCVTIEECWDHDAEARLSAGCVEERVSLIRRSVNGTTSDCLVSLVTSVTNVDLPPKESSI
Chain of Serine/threonine-protein kinase 16 (Homo sapiens) (O75716 whole entry): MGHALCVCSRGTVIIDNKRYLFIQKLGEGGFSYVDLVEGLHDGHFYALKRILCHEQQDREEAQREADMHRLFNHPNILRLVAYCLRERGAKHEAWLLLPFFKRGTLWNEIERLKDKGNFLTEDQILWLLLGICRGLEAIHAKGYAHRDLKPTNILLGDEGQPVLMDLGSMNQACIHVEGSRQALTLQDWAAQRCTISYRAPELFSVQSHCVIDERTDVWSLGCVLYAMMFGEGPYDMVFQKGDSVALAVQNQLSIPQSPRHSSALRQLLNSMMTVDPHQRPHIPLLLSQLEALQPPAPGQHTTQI
Chain of Histamine H2 receptor (Homo sapiens) (P25021 whole entry): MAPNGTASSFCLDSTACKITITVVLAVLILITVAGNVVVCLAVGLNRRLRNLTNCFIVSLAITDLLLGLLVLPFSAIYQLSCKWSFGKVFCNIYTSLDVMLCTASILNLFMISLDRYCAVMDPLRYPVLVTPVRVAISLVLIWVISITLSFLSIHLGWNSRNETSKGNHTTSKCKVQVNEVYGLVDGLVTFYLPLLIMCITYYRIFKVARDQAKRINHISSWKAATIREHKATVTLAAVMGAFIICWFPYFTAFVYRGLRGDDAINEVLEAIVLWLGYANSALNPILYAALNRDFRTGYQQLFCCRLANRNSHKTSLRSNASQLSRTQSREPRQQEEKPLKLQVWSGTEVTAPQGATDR
Chain of Wee1-like protein kinase 2 (Homo sapiens) (P0C1S8 whole entry, looked up): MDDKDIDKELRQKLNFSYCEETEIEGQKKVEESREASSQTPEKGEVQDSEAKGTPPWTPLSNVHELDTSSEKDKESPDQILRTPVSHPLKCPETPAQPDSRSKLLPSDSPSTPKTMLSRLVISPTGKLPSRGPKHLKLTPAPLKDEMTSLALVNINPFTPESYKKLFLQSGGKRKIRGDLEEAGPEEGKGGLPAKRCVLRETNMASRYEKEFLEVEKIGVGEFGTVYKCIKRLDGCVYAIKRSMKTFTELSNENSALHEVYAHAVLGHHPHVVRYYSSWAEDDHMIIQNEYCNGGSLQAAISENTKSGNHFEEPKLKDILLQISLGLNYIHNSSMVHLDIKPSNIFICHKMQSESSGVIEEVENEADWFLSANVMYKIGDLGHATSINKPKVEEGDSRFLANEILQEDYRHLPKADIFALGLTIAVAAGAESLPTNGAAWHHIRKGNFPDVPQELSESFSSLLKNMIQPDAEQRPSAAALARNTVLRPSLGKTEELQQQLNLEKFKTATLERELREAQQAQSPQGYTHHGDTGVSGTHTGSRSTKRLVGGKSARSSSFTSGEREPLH
Chain of Atypical kinase COQ8B, mitochondrial (Homo sapiens) (Q96D53 whole entry): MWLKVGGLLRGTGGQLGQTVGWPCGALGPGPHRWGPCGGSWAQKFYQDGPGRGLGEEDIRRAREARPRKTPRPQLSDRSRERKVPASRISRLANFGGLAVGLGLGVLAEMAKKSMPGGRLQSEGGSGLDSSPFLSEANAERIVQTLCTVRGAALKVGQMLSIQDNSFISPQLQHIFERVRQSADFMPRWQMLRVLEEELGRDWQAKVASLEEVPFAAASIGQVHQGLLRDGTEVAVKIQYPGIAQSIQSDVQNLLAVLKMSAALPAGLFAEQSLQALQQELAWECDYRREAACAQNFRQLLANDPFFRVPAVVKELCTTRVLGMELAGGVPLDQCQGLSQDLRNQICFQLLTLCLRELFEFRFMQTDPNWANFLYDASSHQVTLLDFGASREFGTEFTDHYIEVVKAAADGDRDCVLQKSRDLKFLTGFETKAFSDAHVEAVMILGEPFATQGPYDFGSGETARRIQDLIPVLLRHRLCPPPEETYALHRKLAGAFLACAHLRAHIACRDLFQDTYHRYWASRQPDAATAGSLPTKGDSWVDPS
Chain of Serine/threonine-protein kinase PknB (Mycobacterium tuberculosis) (P9WI81 whole entry): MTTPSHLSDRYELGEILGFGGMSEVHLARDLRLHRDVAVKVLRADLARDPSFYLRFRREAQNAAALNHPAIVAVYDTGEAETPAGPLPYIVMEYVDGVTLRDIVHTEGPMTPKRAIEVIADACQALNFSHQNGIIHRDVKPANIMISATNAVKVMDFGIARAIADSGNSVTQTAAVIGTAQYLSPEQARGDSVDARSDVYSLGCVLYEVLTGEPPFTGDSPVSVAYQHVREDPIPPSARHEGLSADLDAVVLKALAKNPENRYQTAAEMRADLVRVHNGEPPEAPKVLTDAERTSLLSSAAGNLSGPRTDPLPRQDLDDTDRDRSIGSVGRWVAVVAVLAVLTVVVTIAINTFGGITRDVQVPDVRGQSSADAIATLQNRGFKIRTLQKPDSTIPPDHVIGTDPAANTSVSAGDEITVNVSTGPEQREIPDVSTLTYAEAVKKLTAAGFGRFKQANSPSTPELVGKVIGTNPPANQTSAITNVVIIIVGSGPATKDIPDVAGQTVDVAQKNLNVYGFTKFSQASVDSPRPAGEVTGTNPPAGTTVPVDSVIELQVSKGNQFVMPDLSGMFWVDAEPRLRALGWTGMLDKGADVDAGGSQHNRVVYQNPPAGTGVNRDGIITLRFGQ
Chain of Sigma intracellular receptor 2 (Q5BJF2 whole entry): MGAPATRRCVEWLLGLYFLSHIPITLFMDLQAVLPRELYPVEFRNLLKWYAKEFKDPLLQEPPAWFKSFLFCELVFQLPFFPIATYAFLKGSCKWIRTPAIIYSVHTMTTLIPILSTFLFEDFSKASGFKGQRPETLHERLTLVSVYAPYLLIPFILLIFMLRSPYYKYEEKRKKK

C[C@@H]1CN(c2cc(-c3nn(C)c4ccc(OC5(C)CC5)cc34)ncn2)C[C@H](C)O1 [MLi-2-NC]
5.97: pKi [8]
inactive: residual activity [1, 17] 96% | residual activity [2, 17] 55% | residual activity [3, 17] 64% | residual activity [4, 17] 57% | inhibition [5] 18.4% | residual activity [6, 17] 100% | residual activity [7, 17] 100% | residual activity [9, 17] 100% | residual activity [10, 17] 82% | residual activity [11, 17] 72% | residual activity [12, 17] 68% | residual activity [13, 17] 98% | residual activity [14, 17] 100% | residual activity [15, 17] 100% | residual activity [16, 17] 100%

C[C@@H]1CN(c2cc(-c3n[nH]c4ccc(OC5(C)CC5)cc34)ncn2)C[C@H](C)O1 [MLi-2]
inactive: residual activity [1, 18] 100% | residual activity [2, 18] 84% | residual activity [3, 18] 56% | residual activity [4, 18] 90% | inhibition [5] 6.26% | residual activity [6, 18] 100% | residual activity [7, 18] 72% | residual activity [9, 18] 87% | residual activity [10, 18] 84% | residual activity [11, 18] 59% | residual activity [12, 18] 91% | residual activity [13, 18] 99% | residual activity [14, 18] 69% | residual activity [15, 18] 95% | residual activity [16, 18] 95%
5.34: pKi [8]
